How the values were obtained:
Assay in all cases: KINOMEscan competition binding
Conditions in all cases: compound 10.0 µM
ACVR1B (human) = ACVR1B (human) (UniProt P36896)
NEK7 (human) = NEK7 (human) (UniProt Q8TDX7)
FGFR4 (human) = FGFR4 (human) (UniProt P22455)
RPS6KA4 KD1 (human) = RPS6KA4 KD1 (human) (UniProt O75676)
CSNK1G3 (human) = CSNK1G3 (human) (UniProt Q9Y6M4)
PRKCQ (human) = PRKCQ (human) (UniProt Q04759)
MAP2K4 (human) = MAP2K4 (human) (UniProt P45985)
MAPK6 (human) = MAPK6 (human) (UniProt Q16659)
CAMK2B (human) = CAMK2B (human) (UniProt Q13554)
MAP4K3 (human) = MAP4K3 (human) (UniProt Q8IVH8)
DAPK1 (human) = DAPK1 (human) (UniProt P53355)
MST4 (human) = MST4 (human) (UniProt Q9P289)
ACVRL1 (human) = ACVRL1 (human) (UniProt P37023)
[1] = tested on: FLT3 (human), P36888 [K663Q]
CaMK1 (human) = CaMK1 (human) (UniProt Q14012)
FGR (human) = FGR (human) (UniProt P09769)
PKN2 (human) = PKN2 (human) (UniProt Q16513)
TTK (human) = TTK (human) (UniProt P33981)
GAK (human) = GAK (human) (UniProt O14976)
ERBB2 (human) = ERBB2 (human) (UniProt P04626)
EIF2AK2 (human) = EIF2AK2 (human) (UniProt P19525)
PLK1 (human) = PLK1 (human) (UniProt P53350)
CDC42BPA (human) = CDC42BPA (human) (UniProt Q5VT25)
MYO3B (human) = MYO3B (human) (UniProt Q8WXR4)
PRKAA2 (human) = PRKAA2 (human) (UniProt P54646)
PRKACB (human) = PRKACB (human) (UniProt P22694)
BTK (human) = BTK (human) (UniProt Q06187)
TLK2 (human) = TLK2 (human) (UniProt Q86UE8)
MAP2K6 (human) = MAP2K6 (human) (UniProt P52564)
[2] = target: TYK2 JH2 pseudokinase (human) (UniProt P29597)
MYLK4 (human) = MYLK4 (human) (UniProt Q86YV6)
CIT (human) = CIT (human) (UniProt O14578)
RPS6KA6 KD2 (human) = RPS6KA6 KD2 (human) (UniProt Q9UK32)
CAMK4 (human) = CAMK4 (human) (UniProt Q16566)
CAMK4 (human), sequence (Q16566 whole entry, looked up): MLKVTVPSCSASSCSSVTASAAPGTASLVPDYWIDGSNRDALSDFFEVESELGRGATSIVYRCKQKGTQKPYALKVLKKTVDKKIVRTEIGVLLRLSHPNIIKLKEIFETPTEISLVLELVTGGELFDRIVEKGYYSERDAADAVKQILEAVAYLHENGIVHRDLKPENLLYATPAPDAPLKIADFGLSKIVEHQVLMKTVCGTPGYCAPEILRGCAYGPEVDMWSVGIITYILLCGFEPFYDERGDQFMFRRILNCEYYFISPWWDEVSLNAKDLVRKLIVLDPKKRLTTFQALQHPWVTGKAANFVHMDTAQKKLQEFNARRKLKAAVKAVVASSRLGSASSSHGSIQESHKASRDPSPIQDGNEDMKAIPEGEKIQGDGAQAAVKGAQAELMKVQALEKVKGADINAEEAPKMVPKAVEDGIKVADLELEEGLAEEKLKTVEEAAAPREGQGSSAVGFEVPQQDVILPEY

BTK (human), sequence (Q06187 whole entry, looked up): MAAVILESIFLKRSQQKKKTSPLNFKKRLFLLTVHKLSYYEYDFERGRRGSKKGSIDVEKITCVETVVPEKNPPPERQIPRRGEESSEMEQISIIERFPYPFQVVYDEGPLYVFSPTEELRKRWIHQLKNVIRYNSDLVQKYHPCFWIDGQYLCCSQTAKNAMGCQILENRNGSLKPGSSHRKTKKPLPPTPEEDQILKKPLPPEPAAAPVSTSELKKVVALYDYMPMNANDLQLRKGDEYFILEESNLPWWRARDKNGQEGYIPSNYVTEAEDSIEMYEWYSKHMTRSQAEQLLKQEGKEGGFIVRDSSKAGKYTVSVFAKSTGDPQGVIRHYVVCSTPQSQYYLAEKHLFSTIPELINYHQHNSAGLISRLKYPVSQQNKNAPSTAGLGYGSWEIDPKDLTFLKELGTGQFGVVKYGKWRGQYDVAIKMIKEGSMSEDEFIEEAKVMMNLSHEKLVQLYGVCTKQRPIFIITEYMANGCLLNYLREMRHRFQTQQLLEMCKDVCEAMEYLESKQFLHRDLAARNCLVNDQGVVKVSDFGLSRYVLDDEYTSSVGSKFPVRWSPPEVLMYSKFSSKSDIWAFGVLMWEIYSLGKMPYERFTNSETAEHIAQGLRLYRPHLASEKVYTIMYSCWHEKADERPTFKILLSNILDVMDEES
MYLK4 (human), sequence (Q86YV6 whole entry, looked up): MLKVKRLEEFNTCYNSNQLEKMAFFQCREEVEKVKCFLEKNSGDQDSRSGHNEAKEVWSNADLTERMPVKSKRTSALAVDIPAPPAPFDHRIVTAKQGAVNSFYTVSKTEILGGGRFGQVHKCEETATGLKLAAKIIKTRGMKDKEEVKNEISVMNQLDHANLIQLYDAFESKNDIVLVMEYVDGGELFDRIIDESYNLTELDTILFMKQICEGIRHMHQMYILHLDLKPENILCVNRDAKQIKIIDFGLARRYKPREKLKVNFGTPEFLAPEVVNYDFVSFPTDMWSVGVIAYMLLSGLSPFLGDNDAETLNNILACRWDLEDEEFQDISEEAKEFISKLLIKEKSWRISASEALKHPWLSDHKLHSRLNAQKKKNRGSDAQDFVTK
ACVRL1 (human), sequence (P37023 whole entry, looked up): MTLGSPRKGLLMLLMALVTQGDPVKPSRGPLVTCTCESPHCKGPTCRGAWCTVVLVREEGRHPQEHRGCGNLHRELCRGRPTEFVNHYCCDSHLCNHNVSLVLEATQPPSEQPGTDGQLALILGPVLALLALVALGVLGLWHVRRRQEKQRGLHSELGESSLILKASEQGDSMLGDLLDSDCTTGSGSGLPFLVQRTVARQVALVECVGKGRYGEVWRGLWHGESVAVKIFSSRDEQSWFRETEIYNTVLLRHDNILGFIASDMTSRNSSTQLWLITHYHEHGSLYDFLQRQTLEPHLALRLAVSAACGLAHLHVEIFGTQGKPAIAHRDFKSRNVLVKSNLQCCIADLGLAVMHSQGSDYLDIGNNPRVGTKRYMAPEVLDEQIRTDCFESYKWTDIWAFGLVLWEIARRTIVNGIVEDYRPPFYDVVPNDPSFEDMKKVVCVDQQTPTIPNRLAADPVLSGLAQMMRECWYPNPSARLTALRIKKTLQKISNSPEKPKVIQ
GAK (human), sequence (O14976 whole entry, looked up): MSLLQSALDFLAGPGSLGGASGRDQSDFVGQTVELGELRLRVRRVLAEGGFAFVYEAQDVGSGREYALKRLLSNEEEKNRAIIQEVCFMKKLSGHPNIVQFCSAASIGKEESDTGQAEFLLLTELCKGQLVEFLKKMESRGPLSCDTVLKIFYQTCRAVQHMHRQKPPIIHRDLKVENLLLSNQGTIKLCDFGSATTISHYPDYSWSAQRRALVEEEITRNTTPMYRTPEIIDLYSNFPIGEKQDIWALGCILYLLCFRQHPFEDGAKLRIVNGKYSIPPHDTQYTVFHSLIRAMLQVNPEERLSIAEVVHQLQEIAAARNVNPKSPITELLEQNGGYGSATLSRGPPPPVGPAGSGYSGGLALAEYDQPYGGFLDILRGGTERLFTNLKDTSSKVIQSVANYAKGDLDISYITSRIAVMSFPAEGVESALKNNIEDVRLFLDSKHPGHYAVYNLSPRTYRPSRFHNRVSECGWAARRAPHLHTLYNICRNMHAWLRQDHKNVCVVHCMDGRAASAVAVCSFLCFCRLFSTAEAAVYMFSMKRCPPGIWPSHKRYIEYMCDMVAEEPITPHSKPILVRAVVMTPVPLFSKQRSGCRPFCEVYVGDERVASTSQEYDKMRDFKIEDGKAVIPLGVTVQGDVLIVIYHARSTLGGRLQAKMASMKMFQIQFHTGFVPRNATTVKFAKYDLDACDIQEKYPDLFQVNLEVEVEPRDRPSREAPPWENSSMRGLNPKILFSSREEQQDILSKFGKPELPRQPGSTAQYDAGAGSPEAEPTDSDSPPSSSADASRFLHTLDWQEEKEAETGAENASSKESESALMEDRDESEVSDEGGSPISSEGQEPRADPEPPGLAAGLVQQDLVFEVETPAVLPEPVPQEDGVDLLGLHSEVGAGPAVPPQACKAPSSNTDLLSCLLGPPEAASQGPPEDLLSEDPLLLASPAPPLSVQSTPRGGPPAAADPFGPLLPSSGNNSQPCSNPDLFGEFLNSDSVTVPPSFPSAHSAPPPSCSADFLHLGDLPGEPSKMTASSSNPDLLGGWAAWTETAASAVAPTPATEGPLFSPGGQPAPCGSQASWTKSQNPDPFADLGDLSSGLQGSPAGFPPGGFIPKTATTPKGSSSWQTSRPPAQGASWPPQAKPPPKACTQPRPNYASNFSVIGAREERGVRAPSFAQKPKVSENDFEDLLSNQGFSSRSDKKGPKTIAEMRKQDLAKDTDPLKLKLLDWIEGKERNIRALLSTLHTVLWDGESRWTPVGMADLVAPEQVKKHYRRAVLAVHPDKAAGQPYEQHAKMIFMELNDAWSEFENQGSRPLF
PLK1 (human), sequence (P53350 whole entry, looked up): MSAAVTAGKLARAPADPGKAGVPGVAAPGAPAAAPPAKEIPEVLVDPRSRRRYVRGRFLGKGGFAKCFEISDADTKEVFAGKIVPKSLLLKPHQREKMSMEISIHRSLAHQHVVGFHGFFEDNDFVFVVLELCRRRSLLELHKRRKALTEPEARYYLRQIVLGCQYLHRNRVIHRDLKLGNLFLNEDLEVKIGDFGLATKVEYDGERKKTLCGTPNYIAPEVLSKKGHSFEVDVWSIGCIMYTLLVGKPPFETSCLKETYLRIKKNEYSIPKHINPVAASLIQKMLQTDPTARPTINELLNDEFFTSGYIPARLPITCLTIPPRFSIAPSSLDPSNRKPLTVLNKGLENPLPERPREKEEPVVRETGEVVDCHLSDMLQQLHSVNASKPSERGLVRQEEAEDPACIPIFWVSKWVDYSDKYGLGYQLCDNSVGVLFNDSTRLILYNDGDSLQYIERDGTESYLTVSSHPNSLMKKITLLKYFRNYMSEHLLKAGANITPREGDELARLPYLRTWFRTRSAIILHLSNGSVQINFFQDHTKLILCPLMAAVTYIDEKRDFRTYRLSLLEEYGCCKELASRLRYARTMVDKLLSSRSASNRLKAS
CAMK2B (human), sequence (Q13554 whole entry, looked up): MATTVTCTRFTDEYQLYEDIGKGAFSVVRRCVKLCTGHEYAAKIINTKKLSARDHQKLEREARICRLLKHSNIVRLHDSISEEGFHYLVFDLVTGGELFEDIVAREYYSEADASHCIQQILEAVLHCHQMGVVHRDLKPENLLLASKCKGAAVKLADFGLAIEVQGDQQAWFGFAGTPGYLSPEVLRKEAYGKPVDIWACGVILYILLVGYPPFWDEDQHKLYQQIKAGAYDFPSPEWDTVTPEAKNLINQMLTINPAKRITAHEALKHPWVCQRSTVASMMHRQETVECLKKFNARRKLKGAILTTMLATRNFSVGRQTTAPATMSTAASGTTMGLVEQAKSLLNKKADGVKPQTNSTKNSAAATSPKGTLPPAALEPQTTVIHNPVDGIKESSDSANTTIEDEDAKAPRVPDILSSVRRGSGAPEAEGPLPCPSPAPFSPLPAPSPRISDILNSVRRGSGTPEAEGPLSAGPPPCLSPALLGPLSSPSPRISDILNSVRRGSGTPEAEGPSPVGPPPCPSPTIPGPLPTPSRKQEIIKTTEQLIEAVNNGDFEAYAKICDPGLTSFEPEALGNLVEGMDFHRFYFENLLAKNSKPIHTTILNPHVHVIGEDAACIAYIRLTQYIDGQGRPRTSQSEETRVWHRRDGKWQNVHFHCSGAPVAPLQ
MAP2K6 (human), sequence (P52564 whole entry, looked up): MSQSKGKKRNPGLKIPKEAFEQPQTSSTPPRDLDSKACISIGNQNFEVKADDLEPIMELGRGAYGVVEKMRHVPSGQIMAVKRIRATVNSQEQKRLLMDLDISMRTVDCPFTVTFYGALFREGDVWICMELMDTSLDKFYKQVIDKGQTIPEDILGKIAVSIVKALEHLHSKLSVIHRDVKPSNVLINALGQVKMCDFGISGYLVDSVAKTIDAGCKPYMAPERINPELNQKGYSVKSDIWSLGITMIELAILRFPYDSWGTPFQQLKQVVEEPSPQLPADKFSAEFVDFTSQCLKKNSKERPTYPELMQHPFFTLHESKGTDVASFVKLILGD

kinase still bound, per cent of control (ACVR1B (human))	kinase still bound, per cent of control (NEK7 (human))	kinase still bound, per cent of control (FGFR4 (human))	kinase still bound, per cent of control (RPS6KA4 KD1 (human))	kinase still bound, per cent of control (PRKCQ (human))	kinase still bound, per cent of control (MAP2K4 (human))	kinase still bound, per cent of control (MAPK6 (human))	kinase still bound, per cent of control (MAP4K3 (human))	kinase still bound, per cent of control (DAPK1 (human))	kinase still bound, per cent of control (MST4 (human))	kinase still bound, per cent of control (ACVRL1 (human))	kinase still bound, per cent of control [1]	kinase still bound, per cent of control (CaMK1 (human))	kinase still bound, per cent of control (FGR (human))	kinase still bound, per cent of control (TTK (human))	kinase still bound, per cent of control (GAK (human))	kinase still bound, per cent of control (ERBB2 (human))	kinase still bound, per cent of control (EIF2AK2 (human))	kinase still bound, per cent of control (CDC42BPA (human))	kinase still bound, per cent of control (MYO3B (human))	Structure (SMILES)	further results
100%	100%	100%	100%	100%	100%	100%	100%	26%	100%	100%	100%	100%	100%	4.6%	3.8%	100%	100%	100%	100%	COc1cc(C(=O)NC2CCN(C)CC2)ccc1Nc1ncc2c(n1)N(C1CCCC1)C(C)CC(=O)N2C (stereo unspecified)	kinase still bound, per cent of control (CSNK1G3 (human)): 100%; kinase still bound, per cent of control (CAMK2B (human)): 100%; kinase still bound, per cent of control (PKN2 (human)): 100%; kinase still bound, per cent of control (PLK1 (human)): 19%; kinase still bound, per cent of control (PRKAA2 (human)): 100%; kinase still bound, per cent of control (PRKACB (human)): 100%; kinase still bound, per cent of control (BTK (human)): 100%; kinase still bound, per cent of control (TLK2 (human)): 100%; kinase still bound, per cent of control (MAP2K6 (human)): 100%; kinase still bound, per cent of control [2]: 100%; kinase still bound, per cent of control (MYLK4 (human)): 100%; kinase still bound, per cent of control (CIT (human)): 100%; kinase still bound, per cent of control (RPS6KA6 KD2 (human)): 12%; kinase still bound, per cent of control (CAMK4 (human)): 100%
100%	100%	100%	100%	100%	100%	100%	100%	100%	100%	100%	100%	100%	100%	100%	100%	100%	100%	100%	100%	Cc1ccc(C(=O)Nc2cccc(C(F)(F)F)c2)cc1Nc1cncc(C(N)=O)c1	kinase still bound, per cent of control (CSNK1G3 (human)): 100%; kinase still bound, per cent of control (CAMK2B (human)): 100%; kinase still bound, per cent of control (PKN2 (human)): 100%; kinase still bound, per cent of control (PLK1 (human)): 100%; kinase still bound, per cent of control (PRKAA2 (human)): 100%; kinase still bound, per cent of control (PRKACB (human)): 100%; kinase still bound, per cent of control (BTK (human)): 100%; kinase still bound, per cent of control (TLK2 (human)): 100%; kinase still bound, per cent of control (MAP2K6 (human)): 100%; kinase still bound, per cent of control [2]: 100%; kinase still bound, per cent of control (MYLK4 (human)): 100%; kinase still bound, per cent of control (CIT (human)): 100%; kinase still bound, per cent of control (RPS6KA6 KD2 (human)): 100%; kinase still bound, per cent of control (CAMK4 (human)): 100%
100%	100%	100%	100%	100%	100%	100%	100%	5.4%	100%	100%	100%	100%	100%	6.3%	1.6%	100%	100%	100%	100%	CC[C@@H]1C(=O)N(C)c2cnc(Nc3ccc(C(=O)NC4CCN(C)CC4)cc3OC)nc2N1C1CCCC1	kinase still bound, per cent of control (PRKAA2 (human)): 100%; kinase still bound, per cent of control (PRKACB (human)): 100%; kinase still bound, per cent of control (TLK2 (human)): 100%; kinase still bound, per cent of control (MAP2K6 (human)): 100%; kinase still bound, per cent of control [2]: 100%; kinase still bound, per cent of control (MYLK4 (human)): 100%; kinase still bound, per cent of control (CIT (human)): 100%; kinase still bound, per cent of control (RPS6KA6 KD2 (human)): 8.3%; kinase still bound, per cent of control (CAMK4 (human)): 100%
100%	12%	100%	100%	100%	100%	100%	29%	22%	100%	100%	1.1%	100%	100%	2%	0.45%	1.8%	100%	100%	100%	C=CC(=O)Nc1cccc(Oc2nc(Nc3ccc(N4CCN(C)CC4)cc3OC)ncc2Cl)c1	kinase still bound, per cent of control (CSNK1G3 (human)): 100%; kinase still bound, per cent of control (CAMK2B (human)): 100%; kinase still bound, per cent of control (PKN2 (human)): 100%; kinase still bound, per cent of control (PLK1 (human)): 16%; kinase still bound, per cent of control (PRKAA2 (human)): 100%; kinase still bound, per cent of control (PRKACB (human)): 100%; kinase still bound, per cent of control (BTK (human)): 0.1%; kinase still bound, per cent of control (TLK2 (human)): 100%; kinase still bound, per cent of control (MAP2K6 (human)): 100%; kinase still bound, per cent of control [2]: 100%; kinase still bound, per cent of control (MYLK4 (human)): 24%; kinase still bound, per cent of control (CIT (human)): 100%; kinase still bound, per cent of control (RPS6KA6 KD2 (human)): 27%; kinase still bound, per cent of control (CAMK4 (human)): 100%

Source: the kinase profiling compilation of Christmann-Franck et al. (2016)
